Key:
giant foxtail = test: Test C preemergence/postemergence greenhouse plant response rating 0 to 100; format: in vivo, Setaria faberii; settings: POSTEMERGENCE; for Plant response rating, Giant foxtail: 0 to 100 scale
Outline: (§1)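 Compounds in non-phytotoxic solvent applied preemergence to sandy loam one day after planting, postemergence at the 1–4 leaf stage, or to ~2.5 cm floodwater over silt loam.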

corn [1] = test: as above; format: in vivo, Zea mays; settings: POSTEMERGENCE; for Plant response rating, Corn: 0 to 100 scale
Outline: as §1

duck salad = test: Test C flood test plant response rating 0 to 100; format: in vivo, Heteranthera limosa; settings: for Plant response rating (0 to 100), Duck salad: under POSTEMERGENCE head (flood test species); for Plant response rating Duck salad: flood test species listed under POSTEMERGENCE, 0 to 100 scale
Outline: as §1

cotton = test: Test C preemergence/postemergence greenhouse plant response rating 0 to 100; format: in vivo, Gossypium hirsutum; settings: POSTEMERGENCE; for Plant response rating, Cotton: 0 to 100 scale
Outline: as §1

morningglory = test: as above; format: in vivo, Ipomoea hederacea; settings: POSTEMERGENCE; for Plant response rating, Morningglory: 0 to 100 scale
Outline: as §1

corn [2] = test: Test B preemergence/postemergence greenhouse plant response rating 0 to 10; format: in vivo, Zea mays; settings: 0 to 10 scale
Outline: (§2)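 Planted seeds are treated preemergence with compound dissolved in a non-phytotoxic solvent, while postemergence applications go onto plants of two to eighteen cm. Plants stay in the greenhouse twelve to sixteen days and are then rated visually relative to controls.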

sorghum = test: Test C preemergence/postemergence greenhouse plant response rating 0 to 100; format: in vivo, Sorghum bicolor; settings: POSTEMERGENCE; for Plant response rating, Sorghum: 0 to 100 scale
Outline: as §1

downy brome = test: as above; format: in vivo, Bromus tectorum; settings: POSTEMERGENCE; for Plant response rating Downy Brome: 0 to 100 scale
Outline: as §1

bedstraw [3] = test: as above; format: in vivo, Galium aparine; settings: POSTEMERGENCE; for Plant response rating, Bedstraw: 0 to 100 scale
Outline: as §1

velvetleaf = test: as above; format: in vivo, Abutilon theophrasti; settings: POSTEMERGENCE; for Plant response rating, Velvetleaf: 0 to 100 scale
Outline: as §1

bedstraw [4] = test: Test B preemergence/postemergence greenhouse plant response rating 0 to 10; format: in vivo, Galium aparine; settings: 0 to 10 scale
Outline: as §2

sugar beet = test: as above; format: in vivo, Beta vulgaris; settings: 0 to 10 scale
Outline: as §2

barnyardgrass = test: Test C flood test plant response rating 0 to 100; format: in vivo, Echinochloa crus-galli; settings: for Plant response rating (0 to 100), Barnyardgrass / Plant response rating (0 to 100), Barnyardgrass 2: under POSTEMERGENCE head (flood test species); for Plant response rating, Barnyardgrass / Plant response rating Barnyardgrass 2: flood test species listed under POSTEMERGENCE, 0 to 100 scale
Outline: as §1

wild oat = test: Test C preemergence/postemergence greenhouse plant response rating 0 to 100; format: in vivo, Avena fatua; settings: POSTEMERGENCE; for Plant response rating, Wild oat: 0 to 100 scale
Outline: as §1

wild buckwheat = test: Test B preemergence/postemergence greenhouse plant response rating 0 to 10; format: in vivo, Polygonum convolvulus; settings: 0 to 10 scale
Outline: as §2

wheat = test: Test C preemergence/postemergence greenhouse plant response rating 0 to 100; format: in vivo, Triticum aestivum; settings: POSTEMERGENCE; for Plant response rating, Wheat: 0 to 100 scale
Outline: as §1

chickweed = test: Test B preemergence/postemergence greenhouse plant response rating 0 to 10; format: in vivo, Stellaria media; settings: 0 to 10 scale
Outline: as §2

C=CCN1C(=O)COc2cc(F)c(-c3nn4c(c3Br)CCCC4)cc21 [Compound 41]
80: Plant response rating, Bedstraw (bedstraw [3]; 62 g/ha)
10: Plant response rating (0 to 100), Duck salad (duck salad; Rate 31 g/ha) | Plant response rating, Bedstraw (bedstraw [4]; POSTEMERGENCE, Rate 50 g/ha) | Plant response rating, Bedstraw (bedstraw [4]; POSTEMERGENCE, Rate 200 g/ha) | Plant response rating, Bedstraw (bedstraw [4]; Rate 200 g/ha, PREEMERGENCE) | Plant response rating, Sugar beet (sugar beet; POSTEMERGENCE, Rate 50 g/ha) | Plant response rating, Sugar beet (sugar beet; PREEMERGENCE, Rate 50 g/ha) | Plant response rating, Sugar beet (sugar beet; Rate 200 g/ha, POSTEMERGENCE) | Plant response rating, Sugar beet (sugar beet; Rate 200 g/ha, PREEMERGENCE) | Plant response rating, Wild buckwheat (wild buckwheat; POSTEMERGENCE, Rate 50 g/ha) | Plant response rating, Wild buckwheat (wild buckwheat; PREEMERGENCE, Rate 50 g/ha) | Plant response rating, Wild buckwheat (wild buckwheat; Rate 200 g/ha, POSTEMERGENCE) | Plant response rating, Wild buckwheat (wild buckwheat; Rate 200 g/ha, PREEMERGENCE) | Plant response rating, Chickweed (chickweed; POSTEMERGENCE, Rate 50 g/ha) | Plant response rating, Chickweed (chickweed; POSTEMERGENCE, Rate 200 g/ha) | Plant response rating, Chickweed (chickweed; PREEMERGENCE, Rate 50 g/ha) | Plant response rating, Chickweed (chickweed; Rate 200 g/ha, PREEMERGENCE)
2: Plant response rating, Corn (corn [2]; Rate 200 g/ha, PREEMERGENCE) | Plant response rating, Bedstraw (bedstraw [4]; PREEMERGENCE, Rate 50 g/ha)
0: Plant response rating (0 to 100), Duck salad (duck salad; Rate 16 g/ha) | Plant response rating, Corn (corn [2]; PREEMERGENCE, Rate 50 g/ha)
60: Plant response rating Downy Brome (downy brome; 125 g/ha) | Plant response rating, Wheat (wheat; 125 g/ha)
20: Plant response rating (0 to 100), Giant foxtail (giant foxtail; Rate 16 g/ha) | Plant response rating (0 to 100), Sorghum (sorghum; Rate 16 g/ha) | Plant response rating (0 to 100), Wild oat (wild oat; Rate 16 g/ha)
40: Plant response rating, Corn (corn [1]; 62 g/ha) | Plant response rating (0 to 100), Corn (corn [1]; Rate 16 g/ha) | Plant response rating (0 to 100), Corn (corn [1]; Rate 31 g/ha) | Plant response rating, Sorghum (sorghum; 62 g/ha) | Plant response rating (0 to 100), Downy Brome (downy brome; Rate 31 g/ha) | Plant response rating, Wild oat (wild oat; 62 g/ha) | Plant response rating (0 to 100), Wheat (wheat; Rate 16 g/ha)
100: Plant response rating, Cotton (cotton; 62 g/ha) | Plant response rating, Cotton (cotton; 125 g/ha) | Plant response rating (0 to 100), Cotton (cotton; Rate 16 g/ha) | Plant response rating (0 to 100), Cotton (cotton; Rate 31 g/ha) | Plant response rating, Morningglory (morningglory; 62 g/ha) | Plant response rating, Morningglory (morningglory; 125 g/ha) | Plant response rating (0 to 100), Morningglory (morningglory; Rate 31 g/ha) | Plant response rating, Velvetleaf (velvetleaf; 62 g/ha) | Plant response rating, Velvetleaf (velvetleaf; 125 g/ha) | Plant response rating (0 to 100), Velvetleaf (velvetleaf; Rate 16 g/ha) | Plant response rating (0 to 100), Velvetleaf (velvetleaf; Rate 31 g/ha) | Plant response rating (0 to 100), Barnyardgrass (barnyardgrass; Rate 31 g/ha) | Plant response rating, Barnyardgrass (barnyardgrass; 62 g/ha) | Plant response rating, Barnyardgrass (barnyardgrass; 125 g/ha)
30: Plant response rating, Giant foxtail (giant foxtail; 62 g/ha) | Plant response rating (0 to 100), Giant foxtail (giant foxtail; Rate 31 g/ha) | Plant response rating Duck salad (duck salad; 62 g/ha) | Plant response rating Duck salad (duck salad; 125 g/ha) | Plant response rating (0 to 100), Sorghum (sorghum; Rate 31 g/ha) | Plant response rating (0 to 100), Downy Brome (downy brome; Rate 16 g/ha) | Plant response rating (0 to 100), Wild oat (wild oat; Rate 31 g/ha)
70: Plant response rating (0 to 100), Morningglory (morningglory; Rate 16 g/ha) | Plant response rating (0 to 100), Bedstraw (bedstraw [3]; Rate 16 g/ha) | Plant response rating (0 to 100), Bedstraw (bedstraw [3]; Rate 31 g/ha)
50: Plant response rating, Giant foxtail (giant foxtail; 125 g/ha) | Plant response rating, Corn (corn [1]; 125 g/ha) | Plant response rating, Sorghum (sorghum; 125 g/ha) | Plant response rating Downy Brome (downy brome; 62 g/ha) | Plant response rating, Wild oat (wild oat; 125 g/ha) | Plant response rating, Wheat (wheat; 62 g/ha) | Plant response rating (0 to 100), Wheat (wheat; Rate 31 g/ha)
90: Plant response rating, Bedstraw (bedstraw [3]; 125 g/ha) | Plant response rating (0 to 100), Barnyardgrass (barnyardgrass; Rate 16 g/ha)
5: Plant response rating, Corn (corn [2]; POSTEMERGENCE, Rate 200 g/ha)

CCOC(=O)COc1cc(-c2nn3c(c2Cl)CCCC3)c(F)cc1Cl [Compound 42]
8: Plant response rating, Chickweed (chickweed; POSTEMERGENCE, Rate 200 g/ha)
9: Plant response rating, Corn (corn [2]; POSTEMERGENCE, Rate 200 g/ha) | Plant response rating, Bedstraw (bedstraw [4]; POSTEMERGENCE, Rate 200 g/ha) | Plant response rating, Bedstraw (bedstraw [4]; Rate 200 g/ha, PREEMERGENCE) | Plant response rating, Wild buckwheat (wild buckwheat; POSTEMERGENCE, Rate 50 g/ha) | Plant response rating, Wild buckwheat (wild buckwheat; Rate 200 g/ha, POSTEMERGENCE)
70: Plant response rating, Giant foxtail (giant foxtail; 125 g/ha) | Plant response rating, Sorghum (sorghum; 125 g/ha)
90: Plant response rating (0 to 100), Morningglory (morningglory; Rate 16 g/ha) | Plant response rating (0 to 100), Bedstraw (bedstraw [3]; Rate 31 g/ha)
10: Plant response rating, Bedstraw (bedstraw [4]; POSTEMERGENCE, Rate 50 g/ha) | Plant response rating, Sugar beet (sugar beet; POSTEMERGENCE, Rate 50 g/ha) | Plant response rating, Sugar beet (sugar beet; PREEMERGENCE, Rate 50 g/ha) | Plant response rating, Sugar beet (sugar beet; Rate 200 g/ha, POSTEMERGENCE) | Plant response rating, Sugar beet (sugar beet; Rate 200 g/ha, PREEMERGENCE) | Plant response rating (0 to 100), Wild oat (wild oat; Rate 16 g/ha) | Plant response rating (0 to 100), Wild oat (wild oat; Rate 31 g/ha) | Plant response rating (0 to 100), Wheat (wheat; Rate 16 g/ha)
7: Plant response rating, Corn (corn [2]; POSTEMERGENCE, Rate 50 g/ha) | Plant response rating, Bedstraw (bedstraw [4]; PREEMERGENCE, Rate 50 g/ha) | Plant response rating, Wild buckwheat (wild buckwheat; Rate 200 g/ha, PREEMERGENCE)
0: Plant response rating (0 to 100), Duck salad (duck salad; Rate 16 g/ha) | Plant response rating (0 to 100), Duck salad (duck salad; Rate 31 g/ha) | Plant response rating Duck salad (duck salad; 62 g/ha) | Plant response rating, Corn (corn [2]; PREEMERGENCE, Rate 50 g/ha) | Plant response rating, Corn (corn [2]; Rate 200 g/ha, PREEMERGENCE) | Plant response rating (0 to 100), Barnyardgrass 2 (barnyardgrass; Rate 16 g/ha) | Plant response rating, Wild buckwheat (wild buckwheat; PREEMERGENCE, Rate 50 g/ha) | Plant response rating, Chickweed (chickweed; PREEMERGENCE, Rate 50 g/ha) | Plant response rating, Chickweed (chickweed; Rate 200 g/ha, PREEMERGENCE)
95: Plant response rating (0 to 100), Morningglory (morningglory; Rate 31 g/ha)
40: Plant response rating, Corn (corn [1]; 62 g/ha) | Plant response rating, Corn (corn [1]; 125 g/ha) | Plant response rating (0 to 100), Sorghum (sorghum; Rate 16 g/ha) | Plant response rating Barnyardgrass 2 (barnyardgrass; 62 g/ha) | Plant response rating, Wheat (wheat; 125 g/ha)
20: Plant response rating (0 to 100), Corn (corn [1]; Rate 16 g/ha) | Plant response rating Duck salad (duck salad; 125 g/ha) | Plant response rating (0 to 100), Downy Brome (downy brome; Rate 16 g/ha) | Plant response rating (0 to 100), Barnyardgrass 2 (barnyardgrass; Rate 31 g/ha) | Plant response rating (0 to 100), Wheat (wheat; Rate 31 g/ha)
80: Plant response rating (0 to 100), Bedstraw (bedstraw [3]; Rate 16 g/ha)
50: Plant response rating, Giant foxtail (giant foxtail; 62 g/ha) | Plant response rating (0 to 100), Sorghum (sorghum; Rate 31 g/ha) | Plant response rating Downy Brome (downy brome; 125 g/ha)
100: Plant response rating, Cotton (cotton; 62 g/ha) | Plant response rating, Cotton (cotton; 125 g/ha) | Plant response rating (0 to 100), Cotton (cotton; Rate 16 g/ha) | Plant response rating (0 to 100), Cotton (cotton; Rate 31 g/ha) | Plant response rating, Morningglory (morningglory; 62 g/ha) | Plant response rating, Morningglory (morningglory; 125 g/ha) | Plant response rating, Bedstraw (bedstraw [3]; 62 g/ha) | Plant response rating, Bedstraw (bedstraw [3]; 125 g/ha) | Plant response rating, Velvetleaf (velvetleaf; 62 g/ha) | Plant response rating, Velvetleaf (velvetleaf; 125 g/ha) | Plant response rating (0 to 100), Velvetleaf (velvetleaf; Rate 16 g/ha) | Plant response rating (0 to 100), Velvetleaf (velvetleaf; Rate 31 g/ha)
60: Plant response rating, Sorghum (sorghum; 62 g/ha) | Plant response rating Barnyardgrass 2 (barnyardgrass; 125 g/ha)
30: Plant response rating (0 to 100), Giant foxtail (giant foxtail; Rate 16 g/ha) | Plant response rating (0 to 100), Giant foxtail (giant foxtail; Rate 31 g/ha) | Plant response rating (0 to 100), Corn (corn [1]; Rate 31 g/ha) | Plant response rating Downy Brome (downy brome; 62 g/ha) | Plant response rating (0 to 100), Downy Brome (downy brome; Rate 31 g/ha) | Plant response rating, Wild oat (wild oat; 62 g/ha) | Plant response rating, Wild oat (wild oat; 125 g/ha) | Plant response rating, Wheat (wheat; 62 g/ha)
4: Plant response rating, Chickweed (chickweed; POSTEMERGENCE, Rate 50 g/ha)

Source: US6358885B1, “Substituted phenylheterocyclic herbicides” (Mississippi State University, priority 1992, dated 2002)
